Results from patent US20250134895A1, “METHODS AND COMPOSITIONS FOR TREATING ALPHA-SYNUCLEIN-MEDIATED NEURODEGENERATION” (UNIVERSITY HEALTH NETWORK, priority 2021, published 2025).

Key:
[1] = tested on: control GFP C. elegans; test: Coiler score and locomotion of control GFP C. elegans; type: in vivo, Caenorhabditis elegans
Experimental: Animals were synchronized by isolating eggs using alkaline hypochlorite treatment and hatching overnight. Larvae were plated onto NGM agar plates with OP50 and grown for 4 days before recording locomotion. For individual C. elegans recordings, a single adult animal was randomly picked, washed for 1 to 2 minutes in M9 buffer, and then transferred to a fresh NGM plate without food for imaging. Video images were acquired (2 frames per second) for up to 6 minutes using a sCMOS camera (pco.edge, PCO) mounted on a stereomicroscope (Olympus MVX10 MacroView) controlled using the μManager software.^55 A total of 40 individual animals were imaged for each strain. For C. elegans population recordings, ten adult animals were randomly removed using an eyelash pick, washed for 1 minute in M9 buffer, and then transferred to a fresh NGM plate without food, with a ring of copper sulfate solution (150 mM) around the area of recording (a chemorepellent to keep the animals in the recording frame). Exploratory locomotion was recorded using a CCD camera (GX1920, Allied Vision) which was attached to a dissecting stereomicroscope (Leica M165C, 1.0× PlanApo lens). […] Using ImageJ, the displacement, perimeter, and area of each animal was calculated, from which a circularity value was computed using the following formula: circularity=4π(A/P^2), where A is the area of the animal's body and P is the perimeter of the animal's body (both expressed in arbitrary pixel units). […] Using MATLAB (Mathworks), various behavioural metrics including the coiler score were calculated, which is the percentage of frames with a circularity value >0.6. Speed was automatically computed from the ImageJ based WrmTrk plugin as the distance travelled by each animal (in pixels) over the amount of time that it was tracked (in seconds).56 Average speed was determined by calculating the weighted average of each tracked animal's speed within a single population of animals. […]
C. elegans were grown and maintained as previously described (Examples 1-6). […] After 72 hours of drug treatment, animals were randomly picked, washed, and recorded. […]

[2] = biological target: T1, α-synuclein oligomers (Homo sapiens, UniProt P37840); test: Gaussia luciferase protein-fragment complementation cell assay of α-synuclein oligomers in H4 neuroglioma cells; type: cell-based; set-up: full-length human α-synuclein fused to the N-terminal fragment of Gaussia princeps luciferase (syn-luc1); full-length human α-synuclein fused to the C-terminal fragment of Gaussia princeps luciferase (syn-luc2); expressed in transfected cells; host or cells: H4 neuroglioma cells (ATCC, HTB-148), transient co-transfection; settings: 1 μM or 10 μM, Example 9
Experimental: (§1) For controls in this assay, vehicle (i.e., DMSO), rapamycin, and bafilomycin A were used. Rapamycin, or sirolimus, is a small molecule that activates autophagy by inhibiting mTOR (mammalian target of rapamycin). […] To test this possibility, cells expressing α-synuclein were treated with each of the compounds and a cell permeable, resazurin-based assay was used to test for cell viability.
(§2) H4 neuroglioma cells (ATCC, HTB-148) were maintained in Dulbecco's Modified Eagle Medium plus high glucose, L-glutamine, and sodium pyruvate (ThermoFisher, 11995-065) with 10% heat-inactivated fetal bovine serum (ThermoFisher, 16140071) and 1% antibiotic-antimycotic cocktail (ThermoFisher, 15240062) at 37° C. and 5% CO2. DNA expression constructs encoding for full-length human α-synuclein fused to the N-terminal fragment of Gaussia princeps luciferase (syn-luc1), full-length human α-synuclein fused to the C-terminal fragment of Gaussia princeps luciferase (syn-luc2), and full-length Gaussia princeps luciferase were kindly provided by Dr. Pamela McLean, Mayo Clinic Jacksonville.^33 Cells were transiently co-transfected with syn-luc1 and syn-luc2 or transfected with luciferase alone using Superfect transfection reagent (Qiagen, 301305) according to the manufacturer's instructions. Twenty-four hours after transfection, cells were plated on a 96-well microplate at 60,000 cells per well. Twenty-four hours after plating, cells were treated with drugs or vehicle control. Following 24 hours of treatment, cells were washed 1 time with PBS and bioluminescence was measured using an automated CLARIOstar plate reader (Mandel, 430-0505). Cell permeable, native coelenterazine was used as the Gaussia luciferase substrate. Lyophilized coelenterazine (Nanolight, 303-500) was reconstituted in NanoFuel Solvent (Nanolight, 399-1), then diluted in PBS to 16.6 μg/mL, and dispensed per well to a final concentration of 20 μM). The bioluminescent signal generated by the luciferase enzyme was assessed at 470 nm over 5 seconds. Raw luminescence units were normalized to the DMSO vehicle control of each 96-well microplate. To assess cell viability, H4 neuroglioma cells were prepared and treated as described above and, 1 hour prior to viability analysis, cells were treated with PrestoBlue viability reagent (ThermoFisher, A13261) according to the manufacturer's instructions. Fluorescence was automatically measured using a CLARIOstar plate reader (Mandel, 430-0505) and then normalized to the fluorescence measure of the DMSO vehicle control.
We used a bioluminescent protein-fragment complementation assay in which human H4 neuroglioma cells co-express human α-synuclein tagged with the N- or C-terminal half of Gaussia princeps luciferase (FIG. 12). Reconstitution of a complete and active luciferase molecule from the fragments occurs upon α-synuclein oligomerization, and so luminescence provides an indirect measure of α-synuclein oligomer levels. H4 neuroglioma cells were co-transfected with α-syn luciferase fragments, and constructs were plated into a 96-well plate and treated with either 1 μM or 10 μM of each of the 19 drug compounds.

[3] = tested on: full-length Gaussia princeps luciferase; test: Activity of full-length Gaussia luciferase alone in H4 cells; type: cell-based; settings: 10 μM, FIG. 14
Experimental: as §1, §2

[4] = biological target: T1, α-synuclein oligomers; test: Venus YFP protein-fragment complementation assay in rat primary cortical neurons; type: cell-based; settings: 10 μM, 72 hours
Experimental: Specifically, adeno-associated viral vectors (AAV) were used to co-express human α-synuclein tagged with the N- or C-terminal half of Venus yellow fluorescent protein (YFP) in rat cortical neurons.
Pregnant Sprague Dawley rats (E17) were purchased from Charles River. Embryos were surgically removed, and neurons were harvested in a sterile environment. Neurons were plated on poly-D-lysine coated glass coverslips at a density of 5×10^5 cells per well in Neurobasal-A medium, (Gibco, 10888022) supplemented with B27 (2%) (Gibco, 17504044), antibiotic-antimycotic (1%) (Gibco, 15240062), and Glutamax (1%) (Gibco, 35050061). Fifty percent media changes were performed every 3 days. […] Two days post isolation, neurons were co-transduced with AAV-V1 S and AAV-SV2 or transduced with AAV-Venus alone at a MOI of 3,000. […] Concentrations were selected to avoid neuron toxicity according to previous reports.^57-61 Drug-containing media was removed, and cells were washed 1 time with ice-cold PBS before being fixed with 4% PFA (Sigma) at room temperature for 10 minutes. Levels of α-synuclein oligomers were measured by YFP fluorescence. […] YFP fluorescence intensity was analysed automatically using Imaris imaging software (Oxford Instruments). […]

For Nc1nc(NC2CC2)c2ncn([C@H]3C=C[C@@H](CO)C3)c2n1 [Abacavir, abacavir], the “speed of GFP worms” value ([1]; 100 μM) was “no differences”, the “coiling / coiler score of control GFP animals” value ([1]; 100 μM of drug) was “no differences” and the “α-syn oligomers as measured by luciferase activity” value [2] was “significant decrease”. The “changes in the activity of full-length Gaussia luciferase alone” value [3] was “No statistically significant changes” and the “YFP fluorescence compared with vehicle control” value [4] was “significantly reduced”.
